Measured values from PMC7066135, “The lipoprotein Pal stabilises the bacterial outer membrane during constriction by a mobilisation-and-capture mechanism” (Nature Communications, 2020).

Test system: Pal-mCherry accumulation at the septum
Experiment: TIRFM of Pal-mCherry accumulation at the division septum
Assay type: cell-based
Conditions: dividing E. coli cells, mutant TolB; average of 30 cells
Experimental: Overnight supplemented M9-glucose (2 mM MgSO4, 0.1 mM CaCl2, 0.4% (w/v) D-glucose) cultures were diluted in fresh medium with appropriate antibiotics and IPTG for strains expressing TolA from plasmids. Cultures were grown at 37 °C to OD600 0.3. Cells were centrifuged at 7000 × g for 1 min, resuspended in 1 ml of fresh media and treated with CCCP (0.1 mM, RT for 5 min, Sigma #C2759) for PMF decoupling, sodium azide (50 µg ml^−1, RT for 30 min, Sigma #S2002) for ATPase inhibition or chloramphenicol (30 µg ml^−1, 37 °C for 30 min, Sigma #C0378) for translation inhibition. […]
Live cells were imaged using an Oxford NanoImager (ONI) superresolution microscope equipped with four laser lines (405/473/561/640 nm) and ×100 oil immersion objective (Olympus 1.49 NA). Pal-mCherry fluorescence images were acquired by scanning a 50 µm × 80 µm area with a 561 nm laser (0.2 mW) set at 49° incidence angle (100 ms exposition), resulting in a 512 × 1024 pixel image. […] Images were recorded by NimOS software associated with the ONI instrument. If not noted otherwise, each image was acquired as a 100- or 200-frame stack for brightfield and fluorescence channels, respectively. […]
All images were analysed using ImageJ software. Fluorescence distribution along x-axis of cells was determined by the plot profile function with a line width of 4 points for TIRFM images and 40 or 80 for FRAP images. […]

## TolB^AAA: Alanine-substitution of three key hydrophobic residues in E. coli TolB (Ile25Ala, Val26Ala, Ile27Ala)
  Pal-mCherry accumulation at division sites: abolishes Pal-mCherry accumulation at the septum
